The values that follow come from patent publication US11510957B2, “Method for treating or alleviating autoimmune-related diseases” (priority 2016, dated 2022).

For assay [1], the system named is IL-17 secretion in EL4 murine lymphoma cells. Description: Anti-IL-17 secretion in EL4 (murine lymphoma) cells induced with PMA and Ionomycin, ELISA. The assay is classed as cell-based. To be noted: PMA 10 ng/ml + Ionomycin 5 ng/ml, 18 hours. The procedure:
EL4 cell line is murine lymphoma cell purchased from Bioresource Collection and Research Center (referred to as BCRC) and cultured in RPMI 1640 medium which contains 10% Fetal Bovine Serum (referred to as FBS), 1.5 g Sodium bicarbonate, 1 mM Sodium pyruvate, lx non-essential amino acids (referred to as NEAA), and 0.5 mM 2-Mecaptoethanol (referred to as 2-ME).
EL4 lymphoma cells were seeded into 96-well plate by 1×10^5 cells per well and 10 μl of the extract of A. tsao-ko HE-06 was added to each well and incubated at 37° C. in 5% CO2 cell incubator for 1 hour. Then, Phorbol-12-myristate-13-acetate (referred to as PMA or TPA) and Ionomycin were added to be the stimulants that induce activation of lymphoma cells, in which the final concentration of PMA was 10 ng/ml and the final concentration of Ionomycin was 5 ng/ml, and additional 18 hours incubation was executed. In the above test, the group of adding both PMA (final concentration of 10 ng/ml) and Ionomycin (final concentration of 5 ng/ml) was considered as the control group.
Thereafter, the cell-containing 96-well plate was centrifuged at 1200 rpm for 5 minutes and the supernatant was collected and transferred to the new 96-well plate. […] 150 μl DMSO was then added to dissolve the […] and the absorbance of 570 nm was measured to assess the cell viability. […]
For orientation: An ELISA detects its analyte on a solid surface through an enzyme-linked reagent.

In a further assay the test system is EAE in C57BL/6 mice. Description: Experimental autoimmune encephalomyelitis (EAE) mouse model, clinical EAE score. The settings on record: 30 mg/kg and 100 mg/kg; 14 days. The assay is classed as in vivo. The procedure: The experimental animals, female C57BL/6 mice, aged about 8 weeks, were purchased from National Laboratory Animal Center (Tainan). After acclimation and quarantine, the mice were approximately 10-12 weeks of age at the time of performing the EAE experiments. The experimental animals were bred in the environment: 12 hours light and 12 hours dark, room temperature of 23±2° C., and relative humidity of 40-70%. During feeding, animals were free to obtain adequate food and drinking water, but after the onset of EAE, the soaked soft feed and agar gel jelly were especially given in the bottom of the feeding cage, so that the onset animals were easier to feed and drink. In addition, during the quarantine and testing period, the animals were observed and recorded by the veterinarian and the experimental staff of ITRI to ensure health of these experimental animals.
The foregoing C57BL/6 mice were administered subcutaneously with 200 μl emulsion including 200 μg MOG35-55 peptide and 400 μg Mycobacterium tuberculosis H37Ra, followed by intraperitoneal injection of 500 ng pertussis toxin for induction of EAE. From the 7th day after induction, the EAE clinical symptoms were recorded daily according to the recognized Ataxia score (grading of nervous system disorder) and EAE score as the scoring criteria (description of Ataxia score and EAE score are as follows). […]

For assay [2], the system named is TNF-α secretion in LPS-induced acute inflammatory mice. Nature of the assay: TNF-α secretion in LPS-induced acute inflammatory BALB/c mouse model, plasma ELISA. The settings on record: FIG. 5B. The format is in vivo. The procedure:
The 6-8 weeks BALB/c male mice were purchased from BioLASCO Taiwan Co., Ltd. In addition to make the feeding condition meeting with national experimental animal guidelines, the batch of mice were marked, sub-cage and weighing soon after acquisition. Then, these mice were placed to the quarantine room of general area for a week of quarantine work. During the quarantine period, observation of mobility and environmental adaptability was performed, and after assessment to be normal, these mice were transferred into the feeding area for experimental implementation. […]
Then the mice were fasted for 2 to 4 hours but regular drinking water was still supplied. […] After administration, the clinical symptoms of the mice were observed and recorded. […] After administration, the clinical symptoms of the mice were observed and recorded.
After 1.5 hours LPS stimulation, the mice were euthanized by excessive CO2 and the whole blood was collected by cardiac puncture blood sampling. Next, the plasma was collected after centrifugation at 6000 rpm and 4° C. for 10 minutes and then TNF-α secretion were analyzed.
The TNF-α secretion in plasma was analyzed according to the following procedure shown in Duoset® ELISA kit. […] Finally, 50 μl of Stop Solution (1N HCl) was added to each well to stop the color reaction, and the absorbance of OD450 nm was measured.

Assay [3] relates to IMQ-induced psoriasis-like dermatitis in BALB/c mice. Nature of the assay: Imiquimod (IMQ)-induced psoriasis-like dermatitis mouse model, skin irritation score. The format is in vivo. The settings on record: 100 mg/kg; 6 days; FIG. 5D. The procedure:
The 8 weeks BALB/c male mice were purchased from BioLASCO Taiwan Co., Ltd. After acclimation and quarantine, the batch of mice were approximately 9-10 weeks of age at the time of performing the experiment of IMQ-induced psoriasis-like dermatitis. The experimental animals were bred in the environment: 12 hours light and 12 hours dark, room temperature of 23±2° C., and relative humidity of 40-70%. During feeding, animals were free to obtain adequate food and drinking water. In addition, during the quarantine and testing period, the animals were observed and recorded by the veterinarian and the experimental staff of ITRI to ensure health of these experimental animals.
Then, the hair on the back of each mouse was shaved, and the shaving area was about 4*2 cm^2. Since day 0, 3.125 mg imiquimod (IMQ) was administered by smearing to the skin of shaved area of each mouse daily for consecutive 6 days. […]
The above-mentioned degree of skin irritation is based on Psoriasis Area and Severity Index (PAST), in which erythema, thickening, and scaling of skin were assessed and analyzed for judging the scale. […]
The mean value and standard error of mean (S.E.M.) of each group were calculated by accumulating the index observed in the same mouse, and t-test statistics was used to distinguish the differences between the groups.

Turning to `O=CC1=CC[C@H](O)[C@@H]2CCC[C@H]12` [Tsaokoin (TK), tsaokoin], the “IC50, concentration causing 50% IL-17 secretion inhibition, EL4” value in assay [1] is 12.1 µg/mL. The “effect on progress of EAE (EAE score)” value in the assay with EAE in C57BL/6 mice was “slow down the progress of EAE, and present a dose-dependent effect”. Further, the “inhibition of TNF-α secretion (in words)” value in assay [2] is on record as “significantly inhibit the secretion of TNF-α”. The “clinical symptoms of IMQ-induced psoriasis-like dermatitis” value in assay [3] was “significantly alleviate the clinical symptoms of IMQ-induced psoriasis-like dermatitis”.
